Tests used:
Toxicity in mice = conditions: mouse, in vivo, ip; administered intraperitoneally to mice
Micrococcus SP 1810E = test: Minimum Inhibitory Concentration (MIC), agar dilution; assay type: cell-based; conditions: 18 hours at 37°C
Excerpt: (§1) Serial two-fold dilutions of freshly prepared test solution were made into Oxoid No. 1 Nutrient agar with or without added enrichment and poured into petri dishes. Plates were innoculated with a multipoint innoculator with innoculum containing approximately 10^5 colony forming units of the organisms shown in Table 1, all of which are clinical isolates.

Staph. aureus 853E [1] = test: as above; assay type: cell-based; conditions: 18 hours at 37°C
Excerpt: as §1

E. coli 851E = test: as above; assay type: cell-based; conditions: 18 hours at 37°C
Excerpt: as §1

K. aerogenes 1522E = test: as above; assay type: cell-based; conditions: 18 hours at 37°C
Excerpt: as §1

H. influenzae 1184E = test: as above; assay type: cell-based; conditions: 18 hours at 37°C
Excerpt: as §1

E. cloacae 1051E = test: as above; assay type: cell-based; conditions: 18 hours at 37°C
Excerpt: as §1

E. cloacae 1321E = test: as above; assay type: cell-based; conditions: 18 hours at 37°C
Excerpt: as §1

S. marcescens 1324E = test: as above; assay type: cell-based; conditions: 18 hours at 37°C
Excerpt: as §1

[2] = target: T1, partially purified β-lactamase PCI (Staphylococcus aureus, UniProt P00807); test: β-Lactamase inhibition (hydrolysis of ampicillin); assay type: biochemical; conditions: ampicillin sodium 500 µg/ml, 37°C, pH7, read-out: μg/ml of compound giving 50% inhibition of hydrolysis of ampicillin (converted)
T1 construct: partially purified β-lactamases from Escherichia coli (either TEM or RPI), Klebsiella aerogenes (K1) and Staphylococcus aureus (PCI); endogenous in cells; host or cells: Staphylococcus aureus (PCI), enzyme partially purified from the producing bacterium
T1 sequence (P00807 25-281): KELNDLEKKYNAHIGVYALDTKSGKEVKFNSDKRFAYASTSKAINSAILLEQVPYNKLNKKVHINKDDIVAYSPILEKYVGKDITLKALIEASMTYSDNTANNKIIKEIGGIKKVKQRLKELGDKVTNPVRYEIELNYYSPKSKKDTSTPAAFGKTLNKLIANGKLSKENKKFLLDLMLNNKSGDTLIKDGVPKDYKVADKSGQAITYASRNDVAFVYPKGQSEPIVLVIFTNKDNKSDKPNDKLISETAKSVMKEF
Method: (§2) The compounds have been tested for their inhibitory activity against partially purified β-lactamases from Escherichia coli (either TEM or RPI), Klebsiella aerogenes (K1) and Staphylococcus aureus (PCI). The substrate used was ampicillin sodium.
(§3) Ampicillin sodium at a concentration of 500 µg/ml was reacted with the enzyme at 37°C and pH7. The enzyme concentration was such as to destroy all the ampicillin within 10 minutes. The reaction was followed spectrophotometrically by observing the loss of absorption at 238 nm. Concentrations of the compound were added to inhibit the reaction, and the I5O value represents µg/ml of compound halving the initial velocity of hydrolysis of ampicillin.

[3] = target: partially purified β-lactamase K1; test: β-Lactamase inhibition (hydrolysis of ampicillin); assay type: biochemical; conditions: β-lactamase KI; ampicillin sodium 500 µg/ml, 37°C, pH7
Method: as §2, §3

Pr. rettgeri 1356E = test: Synergy testing with amoxycillin (MIC, agar dilution); assay type: cell-based
Excerpt: as §1
(§4) Method as for 1, incorporating amoxycillin in serial two-fold dilutions along with a sub-inhibitory, fixed concentration of the test clavulanic acid derivative, as shown in the Table. All of the organisms are clinical isolates.

K. aerogenes 1963E = test: as above; assay type: cell-based
Excerpt: as §1, §4

E. coli (TEM^+) 1193E = test: as above; assay type: cell-based
Excerpt: as §1, §4

[4] = target: T2, partially purified β-lactamase TEM (Escherichia coli, UniProt P62593); test: β-Lactamase inhibition (hydrolysis of ampicillin); assay type: biochemical; conditions: ampicillin sodium 500 µg/ml, 37°C, pH7, read-out: μg/ml of compound giving 50% inhibition of hydrolysis of ampicillin (converted)
T2 construct: partially purified β-lactamases from Escherichia coli (either TEM or RPI); endogenous in cells; host or cells: Escherichia coli carrying the TEM plasmid, enzyme partially purified from the bacterium
T2 sequence (P62593 24-286 limits assumed): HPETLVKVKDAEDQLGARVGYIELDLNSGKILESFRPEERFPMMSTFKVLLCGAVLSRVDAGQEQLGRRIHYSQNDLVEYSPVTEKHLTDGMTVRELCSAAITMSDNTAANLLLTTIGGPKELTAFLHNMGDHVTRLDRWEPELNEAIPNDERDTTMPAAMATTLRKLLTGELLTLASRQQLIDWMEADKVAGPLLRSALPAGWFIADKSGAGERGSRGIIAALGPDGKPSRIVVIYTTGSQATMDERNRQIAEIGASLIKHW
Method: as §2, §3

Staph. aureus 853E [5] = test: Synergy testing with amoxycillin (MIC, agar dilution); assay type: cell-based
Excerpt: as §1, §4

[6] = in the presence of 1µg/ml of compound
[7] = in the presence of 4µg/ml of compound

Row | Structure (SMILES) | LD50 (Toxicity in mice) | MIC (agar dilution) of compound (Micrococcus SP 1810E) | MIC (agar dilution) of compound (Staph. aureus 853E [1]; Staph. aureus 835E) | MIC (agar dilution) of compound (E. coli 851E) | MIC (agar dilution) of compound (K. aerogenes 1522E) | MIC (agar dilution) of compound (H. influenzae 1184E) | MIC (agar dilution) of compound (E. cloacae 1051E) | MIC (agar dilution) of compound (E. cloacae 1321E) | MIC (agar dilution) of compound (S. marcescens 1324E) | IC50 [2] | μg/ml of compound giving 50% inhibition of hydrolysis of ampicillin [3] | MIC of amoxycillin (Pr. rettgeri 1356E; [6]) | MIC of amoxycillin (Pr. rettgeri 1356E; [7]) | MIC of amoxycillin (K. aerogenes 1963E; [6]) | MIC of amoxycillin (E. coli (TEM^+) 1193E; [6]) | MIC (agar dilution) of compound (Staph. aureus 853E [1]; Staph. aureus 853E) | IC50 [4] | also measured
1 | CC(=O)c1cn(C/C=C2\O[C@@H]3CC(=O)N3[C@H]2C(=O)O)nn1 [Example 6, Sodium (3R,5R,Z)-2-[2-(4-acetyl-1,2,3-triazol-l-yl)-ethlidene]-clavam-3-carboxylate] | > 500 mg/kg | <0.1 µg/mL | <0.1 µg/mL | 4 µg/mL | 8 µg/mL | 62 µg/mL | 8 µg/mL | 8 µg/mL | 62 µg/mL | 616 nM | 0.155 µg/mL |  |  |  |  |  |  | 
2 | NC(=O)c1cn(C/C=C2\O[C@@H]3CC(=O)N3[C@H]2C(=O)O)nn1 [Example 12] |  | 0.2 µg/mL |  | 4 µg/mL | 8 µg/mL | 31 µg/mL | 4 µg/mL | 4 µg/mL | 8 µg/mL | 1230 nM | 0.34 µg/mL | 8 µg/mL | 1 µg/mL | 1 µg/mL | 62 µg/mL | 0.5 µg/mL | 426 nM | MIC of amoxycillin (K. aerogenes 1963E; [7]): < 0.1 µg/mL; MIC of amoxycillin (E. coli (TEM^+) 1193E; [7]): 1 µg/mL
3 | N#Cc1cn(C/C=C2\O[C@@H]3CC(=O)N3[C@H]2C(=O)O)nn1 [Example 17, Sodium (3R,5R,Z)-2-[2-(4-cyano-1,2,3-triazol-1-yl)-ethylidene]clavam-3-carboxylate] | > 500 mg/kg |  | <0.1 µg/mL | 2 µg/mL | 8 µg/mL | 16 µg/mL | 4 µg/mL | 4 µg/mL | 31 µg/mL | 2540 nM | 0.39 µg/mL | 31 µg/mL | 2 µg/mL | 2 µg/mL | 31 µg/mL |  | 363 nM | MIC of amoxycillin (K. aerogenes 1963E; [7]): 0.5 µg/mL
4 | CCOC(=O)c1nnn(C/C=C2\O[C@@H]3CC(=O)N3[C@H]2C(=O)O)c1C(=O)OCC [Example 2, Sodium (3R,5R,Z)-2-[2-(4,5-diethoxcarbonl-1,2,3-triazol-1-yl)-ethylidene]-clavam-3-carboxylate] |  |  |  |  |  |  |  |  |  | 5330 nM | 0.8 µg/mL |  |  |  |  |  | 761 nM | 
5 | CC1(C)S[C@@H]2[C@H](NC(=O)[C@H](N)c3ccc(O)cc3)C(=O)N2[C@H]1C(=O)O [amoxycillin, reference compound] |  |  |  |  |  |  |  |  |  |  |  |  |  |  |  |  |  | MIC of amoxycillin (Staph. aureus 853E [5]; amoxycillin alone): 2 µg/mL; MIC of amoxycillin (Pr. rettgeri 1356E; amoxycillin alone): > 250 µg/mL; MIC of amoxycillin (K. aerogenes 1963E; amoxycillin alone): 62 µg/mL; MIC of amoxycillin (E. coli (TEM^+) 1193E; amoxycillin alone): > 250 µg/mL
6 | CC(=O)c1cnnn1C/C=C1\O[C@@H]2CC(=O)N2[C@H]1C(=O)O [Example 10, Sodium (3R,5R.Z)-2-[2-(5-acetvl-1.2,3-triazol-l-yl)-ethylidene]-clavam-3-carboxylate] |  |  |  |  |  |  |  |  |  | 2400 nM | 0.62 µg/mL |  |  |  |  |  | 1980 nM | 
7 | O=C(O)[C@H]1/C(=C/Cn2ccnn2)O[C@@H]2CC(=O)N21 [Example 22] |  |  |  | 4 µg/mL | 8 µg/mL | 16 µg/mL | 8 µg/mL | 8 µg/mL | 8 µg/mL |  |  |  |  |  |  | 2 µg/mL |  | 
8 | CCOC(=O)c1cn(C/C=C2\O[C@@H]3CC(=O)N3[C@H]2C(=O)O)nn1 [Example 4] | > 500 mg/kg | <0.1 µg/mL | <0.1 µg/mL | 4 µg/mL | 8 µg/mL | 62 µg/mL | 16 µg/mL | 16 µg/mL | 125 µg/mL | 419 nM | 0.35 µg/mL | 125 µg/mL | 4 µg/mL | 2 µg/mL | > 250 µg/mL |  |  | 
9 | COC(=O)c1cn(C/C=C2\O[C@@H]3CC(=O)N3[C@H]2C(=O)O)nn1 [Example 19, Sodium (3R,5R,Z)-2-[2-(4-methoxycarbonyl-1,2,3-triazol-1-y)ethylidene]clavam-3-carboxylate] | > 500 mg/kg |  |  | 4 µg/mL | 16 µg/mL | 62 µg/mL | 16 µg/mL | 16 µg/mL | 62 µg/mL |  |  | 16 µg/mL | 1 µg/mL |  |  | 0.5 µg/mL |  | 
10 | O=C(O)c1cn(C/C=C2\O[C@@H]3CC(=O)N3[C@H]2C(=O)O)nn1 [Example 8, Disodium (3R,5R.Z)-2-[2-(4-carboxy-1.2.3-triazol-l-yl)-ethylidene]-clavam-3-carboxylate] |  | 8 µg/mL | 8 µg/mL | 8 µg/mL | 16 µg/mL | 31 µg/mL | 16 µg/mL | 8 µg/mL | 31 µg/mL | 9860 nM | 0.22 µg/mL |  |  |  |  |  | 374 nM | 
11 | CNC(=O)c1cn(C/C=C2\O[C@@H]3CC(=O)N3[C@H]2C(=O)O)nn1 [Example 14, Sodium (3R,5R.Z)-2-{2-[4-(N-methylcarbamoyl)-1.2.3-triazol-1-yl]-ethylidene}-clavam-3-carboxylate] | > 500 mg/kg | 1 µg/mL |  | 8 µg/mL | 16 µg/mL | 31 µg/mL | 16 µg/mL | 16 µg/mL | 31 µg/mL | 2180 nM | 0.7 µg/mL | 8 µg/mL | 1 µg/mL | 8 µg/mL | 62 µg/mL | 1 µg/mL |  | MIC of amoxycillin (Staph. aureus 853E [5]; [6]): < 0.1 µg/mL; MIC of amoxycillin (K. aerogenes 1963E; [7]): 0.2 µg/mL; MIC of amoxycillin (E. coli (TEM^+) 1193E; [7]): 4 µg/mL

Source: patent EP0001516A1, “Beta-Lactam compounds, processes for their preparation, pharmaceutical compositions containing them and intermediates of use in their preparation” (GLAXO GROUP LIMITED, priority 1977, dated 1979)
